Source: patent US12115221B2, “Pickering emulsion stabilized by cellulose nanocrystals from ginkgo seed shells and preparation method thereof” (Jiangnan University, priority 2019, dated 2024)

Test: Degradation rate of curcumin on storage
Format: physicochemical
Settings: storage at room temperature for 7 days
Description: Curcumin was dissolved in an oil phase. The CNCs with low aspect ratio obtained in the Example 6 were diluted to 0.3 wt %, and an emulsion was prepared according to the oil-water ratio of 1:9. Subsequently, high-speed shearing was carried out at 10000 rpm for 2 min using high-speed shearing equipment to obtain a coarse emulsion, and then the coarse emulsion was circulated 4 times at 30 MPa using a high-pressure homogenizer to obtain the final Pickering emulsion. Determination of degradation rate of curcumin: a certain volume of emulsion was taken; the emulsion was mixed with ethanol in a ratio of 1:1; the mixture was centrifuged at 11000 rpm for 5 min; the supernatant was collected; and the absorbance at 426 nm was measured. Formula of degradation rate: Degradation rate (100%)=m1/m2×100, wherein m1 is the mass of curcumin after the emulsion is placed, and m2 is the mass of curcumin before the emulsion is placed.

## COc1cc(/C=C/C(=O)CC(=O)/C=C/c2ccc(O)c(OC)c2)ccc1O [curcumin in the aqueous solution, Curcumin]
  degradation rate of curcumin: 80%
